Test results taken from US8846670B2, “1,2,3,4-tetrahydro-pyrimido(1,2-a)pyrimidin-6-one derivatives, preparation thereof, and pharmaceutical use thereof” (priority 2009, dated 2014).

Tests used:
Assay type in all cases: cell-based
[1] = system: AKT protein phosphorylated on serine 473 (P-AKT-S473) in PC3 human prostate carcinoma line; assay: Study of pAKT expression in PC3 human prostate carcinoma cells measured by the MSD Multi-spot Biomarker Detection technique (Test B); conditions: Homo sapiens, PC-3, P-AKT-S473 in PC3 cells, MSD sandwich immunoassay, 1 to 2 h incubation; absolute IC50, mean of 2 experiments
Method: The inhibitory activity of the molecules on AKT phosphorylation is measured either by western blotting using the technique described below, or by the MSD Multi-spot Biomarker detection technique from Meso Scale Discovery also described below.
Study of pAKT Expression in PC3Human Prostate Carcinoma Cells Measured by the MSD Multi-Spot Biomarker Detection Technique from Meso Scale Discovery (Test B):
The primary antibody specific for P-AKT-S473 (Kit #K151CAD) is coated onto an electrode in each well of the 96-well plates of the MSD kit: after the addition of a protein lysate to each well, the signal is visualised by adding a secondary detection antibody labelled with an electrochemiluminescent compound. The procedure followed is that described in the kit.
On day 2, the cells are incubated in the presence or absence of the test products for 1 to 2 h at 37° C. in the presence of 5% of CO2. The molecules, diluted in dimethyl sulphoxide (DMSO Sigma #D2650), are added from a 20-times concentrated stock solution, the final percentage of DMSO being 0.1%.
After this incubation, the cells are lysed for the preparation of the proteins. […] At this stage, the plates containing the lysates can be frozen at −20° C. or at −80° C.
The wells of the 96-well plates of the MSD kit are saturated for 1 h at ambient temperature with the blocking solution of the MSD kit. Four washes are carried out with 150 μl of Tris Wash Buffer of the MSD kit. The lysates previously prepared are transferred into the 96-well multi-spot plates of the MSD kit and incubated for 1 h at ambient temperature, with shaking. Four washes are carried out with 150 μl of Tris Wash Buffer of the MSD kit. 25 μl of the MSD sulfo-tag detection antibody solution are added to the wells and incubated for 1 h at ambient temperature, with shaking. Four washes are carried out with 150 μl of Tris Wash Buffer of the MSD kit. 150 μl of Read Buffer of the MSD kit are added to the wells and the plates are read immediately on the S12400 instrument from Meso Scale Discovery.
The instrument measures a signal for each well. Wells without cells and containing the lysis buffer serve to determine the background noise that will be subtracted from all the measurements (min). The wells containing cells in the absence of product and in the presence of 0.1% DMSO are considered to be the 100% signal (max). The percentage inhibition is calculated for each concentration of test product according to the following formula: (1−((test−min)/(max−min)))×100.
2 independent experiments make it possible to calculate the mean of the IC50 values.

[2] = system: P. falciparum (highly chloroquine-resistant strain Fcm29-Cameroon); assay: Antimalarial activity test (radioactive micromethod of Desjardins); conditions: Plasmodium falciparum, Erythrocyte, infected human erythrocytes, 48 h, tritiated hypoxanthine incorporation
Method: Antimalarial Activity Test
The P. falciparum strains are cultured in solutions of RPM! […] For each assay, the parasites are incubated with selected concentrations of drugs for 48 h at 37° C. in a humid atmosphere and at 5% CO2. Artemisinin, artesunate and also chloroquine diphosphate are used as reference molecules. The first dilution of the drug is prepared at 1 mg/ml in dimethyl sulphoxide. The range of successive daughter solution dilutions is also prepared in dimethyl sulphoxide. […] These dilutions are then added to the parasites in culture in the microplates. […] The growth of the parasites is measured by incorporation of tritiated hypoxanthine (added 24 h after the beginning of the exposure to the drug) compared with the incorporation in the absence of drug.

[3] = system: translocation of the LC3 protein in Hela GFP-LC3 cells; assay: Study of the translocation of the LC3 protein in Hela human cells, measured by image analysis cytometry (Test C, autophagy); conditions: Homo sapiens, HeLa, 2 h, Hela GFP-LC3 cells with LC3 granulations, EBSS + 10 μM hydroxychloroquine, absolute IC50
Method: The inhibitory activity of the molecules on autophagy is measured by the translocation of the LC3 protein from the cytoplasm to the autophagosomes. For this, Hela cells were transfected with a vector encoding the chimeric protein GFP-LC3. A Hela clone stably expressing the GFP-LC3 protein was selected.
Study of the Translocation of the LC3 Protein in Hela Human Cells, Measured by Image Analysis Cytometry (Test C):
On day 2, the cells are washed twice with EBSS (Sigma #E3024). The cells are then incubated in EBSS, 10 μM of hydroxychloroquine and test products for 2 h at 37° C. in the presence of 5% CO2. The molecules are diluted in dimethyl sulphoxide (DMSO Sigma #D2650), the final DMSO percentage being 0.1%.
After this incubation, the cells are fixed with 4% paraformaldehyde (Sigma #HT501128 4 L) for 10 min. […] The 96-well plates are then read with the iCyte image analysis cytometer (Compucyte).
Two independent experiments make it possible to calculate the mean of the IC50 values.

Q: How did the IC50 [1] turn out when `O=c1cc(N2CCOCC2)nc2n1CC[C@@H](C(F)(F)F)N2c1ccc(F)cc1` [Example 13, (8S)-9-(4-fluorophenyl)-2-(morpholin-4-yl)-8-(trifluoromethyl)-6,7,8,9-tetrahydro-4H-pyrimido[1,2-a]pyrimidin-4-one] was run?
A: 25 nM

Q: And the inhibition at 1 µM [2]?
A: 52%

Q: What about the IC50 [3] of the same molecule?
A: 632 nM

Q: `COc1ccccc1CCN1c2nc(N3CCOCC3)cc(=O)n2CC[C@H]1C(F)(F)F` [Example 24, (8S)-9-[2-(2-methoxyphenyl)ethyl]-2-(morpholin-4-yl)-8-(trifluoromethyl)-6,7,8,9-tetrahydro-4H-pyrimido[1,2-a]pyrimidin-4-one] was tested. Which IC50 [1] did it give?
A: 9 nM

Q: And the inhibition at 0.1 µM [2]?
A: 40%

Q: What about the inhibition at 1 µM [2] of the same molecule?
A: 100%

Q: What about the IC50 [3] of the same molecule?
A: 103 nM

Q: Which IC50 [1] does the source give for `COc1ccc(N2c3nc(N4CCOCC4)cc(=O)n3CC[C@H]2C(F)(F)F)cc1` [Example 27, (8S)-9-(4-methoxyphenyl)-2-(morpholin-4-yl)-8-(trifluoromethyl)-6,7,8,9-tetrahydro-4H-pyrimido[1,2-a]pyrimidin-4-one] here?
A: 10 nM

Q: What about the inhibition at 1 µM [2] of the same molecule?
A: 36%

Q: And the IC50 [3]?
A: 363 nM

Q: Which results are given for `O=c1c(F)c(N2CCOCC2)nc2n1CC[C@@H](C(F)(F)F)N2Cc1ccccc1` [Example 41, (8S)-9-benzyl-3-fluoro-2-(morpholin-4-yl)-8-(trifluoro-methyl)-6,7,8,9-tetrahydro-4 H-pyrimido[1,2-a]pyrimidin-4-one]?
A: IC50 [1]: 4 nM; IC50 [3]: 192 nM

Q: Which results are given for `O=C(c1c(F)cccc1F)N1c2nc(N3CCOCC3)cc(=O)n2CC[C@H]1C(F)(F)F` [Example 43, (8S)-9-[(2,6-difluorophenyl)carbonyl]-2-(morpholin-4-yl)-8-(trifluoromethyl)-6,7,8,9-tetrahydro-4 H-pyrimido[1,2-a]pyrimidin-4-one]?
A: IC50 [1]: 16 nM; IC50 [3]: 986 nM

Q: With `O=C(c1ccc(F)cc1F)N1c2nc(N3CCOCC3)cc(=O)n2CC[C@H]1C(F)(F)F` [Example 44, (8S)-9-[(2,4-difluorophenyl)carbonyl]-2-(morpholin-4-yl)-8-(trifluoromethyl)-6,7,8,9-tetrahydro-4 H-pyrimido[1,2-a]pyrimidin-4-one] as the molecule, how does the IC50 [1] read?
A: 108 nM

Q: What about the IC50 [3] of the same molecule?
A: > 1000 nM

Q: With `O=C(Cc1ccccc1)N1c2nc(N3CCOCC3)cc(=O)n2CC[C@H]1C(F)(F)F` [Example 45, (8S)-2-(morpholin-4-yl)-9-(phenylacetyl)-8-(trifluoromethyl)-6,7,8,9-tetrahydro-4 H-pyrimido[1,2-a]pyrimidin-4-one] as the molecule, how does the IC50 [1] read?
A: 14 nM

Q: And the IC50 [3]?
A: > 1000 nM

Q: What does the source list for `O=c1cc(N2CCOCC2)nc2n1CC[C@@H](C(F)(F)F)N2CCc1cccc(Cl)c1` [Example 46, (8S)-9-[2-(3-chlorophenyl)ethyl]-2-(morpholin-4-yl)-8-(trifluoromethyl)-6,7,8,9-tetrahydro-4 H-pyrimido[1,2-a]pyrimidin-4-one]?
A: IC50 [1]: 4 nM; IC50 [3]: 16 nM

Q: For `O=c1cc(N2CCOCC2)nc2n1CC[C@@H](C(F)(F)F)N2C[C@@H](O)c1cc2ccccc2s1` [Example 48, 9-((R)-2-Benzo[b]thiophen-2-yl-2-hydroxyethyl)-2-morpholin-4-yl-8-(S)-trifluoromethyl-6,7,8,9-tetrahydro-pyrimido[1,2-a]pyrimidin-4-one], which inhibition at 0.1 µM [2] is on record?
A: 89%

Q: What about the inhibition at 1 µM [2] of the same molecule?
A: 96%

Q: Which inhibition at 0.1 µM [2] does the source give for `O=c1cc(N2CCOCC2)nc2n1CC[C@@H](C(F)(F)F)N2C[C@@H](O)c1cccc(O)c1` [Example 49, 9-[(S)-2-Hydroxy-2-(3-hydroxyphenyl)ethyl]-2-morpholin-4-yl-8-(S)-trifluoromethyl-6,7,8,9-tetrahydropyrimido[1,2-a]pyrimidin-4-one] here?
A: 81%

Q: And the inhibition at 1 µM [2]?
A: 99%

Q: What does the source list for `CN(C)CC(=O)Nc1cccc([C@H](O)CN2c3nc(N4CCOCC4)cc(=O)n3CC[C@H]2C(F)(F)F)c1` [Example 50, 2-Dimethylamino-N-{3-[(S)-1-hydroxy-2-((S)-8-morpholin-4-yl-6-oxo-2-trifluoromethyl-3,4-dihydro-2H,6H-pyrimido[1,2-a]pyrimidin-1-yl)ethyl]phenyl}acetamide]?
A: inhibition at 0.1 µM [2]: 79%; inhibition at 1 µM [2]: 99%

Q: Which results are given for `COc1ccccc1[C@H](O)CN1c2nc(N3CCOCC3)cc(=O)n2CC[C@H]1C(F)(F)F` [Example 51, 9-[(S)-2-Hydroxy-2-(2-methoxyphenyl)ethyl]-2-morpholin-4-yl-8-(S)-trifluoromethyl-6,7,8,9-tetrahydropyrimido[1,2-a]pyrimidin-4-one]?
A: inhibition at 0.1 µM [2]: 75%; inhibition at 1 µM [2]: 99%

Q: For `COc1cc(F)ccc1[C@H](O)CN1c2nc(N3CCOCC3)cc(=O)n2CC[C@H]1C(F)(F)F` [Example 52, 9-[(S)-2-(4-Fluoro-2-methoxyphenyl)-2-hydroxyethyl]-2-morpholin-4-yl-8-(S)-trifluoromethyl-6,7,8,9-tetrahydro-pyrimido[1,2-a]pyrimidin-4-one], which inhibition at 0.1 µM [2] is on record?
A: 75%

Q: And the inhibition at 1 µM [2]?
A: 99%

Q: How did the inhibition at 0.1 µM [2] turn out when `COc1cc(Cl)ccc1[C@H](O)CN1c2nc(N3CCOCC3)cc(=O)n2CC[C@H]1C(F)(F)F` [Example 53, 9-[(S)-2-(4-Chloro-2-methoxyphenyl)-2-hydroxyethyl]-2-morpholin-4-yl-8-(S)-trifluoromethyl-6,7,8,9-tetrahydro-pyrimido[1,2-a]pyrimidin-4-one] was run?
A: 75%

Q: And the inhibition at 1 µM [2]?
A: 99%

Q: Which inhibition at 0.1 µM [2] does the source give for `COc1ccc([C@H](O)CN2c3nc(N4CCOCC4)cc(=O)n3CC[C@H]2C(F)(F)F)c(Cl)c1` [Example 54, 9-[(S)-2-(2-Chloro-4-methoxyphenyl)-2-hydroxyethyl]-2-morpholin-4-yl-8-(S)-trifluoromethyl-6,7,8,9-tetrahydro-pyrimido[1,2-a]pyrimidin-4-one] here?
A: 83%

Q: What about the inhibition at 1 µM [2] of the same molecule?
A: 99%

Q: For `O=c1cc(N2CCOCC2)nc2n1CC[C@@H](C(F)(F)F)N2CC(O)Cc1ccccc1` (stereo partly drawn) [Example 55, 9-(2-Hydroxy-3-phenylpropyl)-2-morpholin-4-yl-8-(S)-trifluoromethyl-6,7,8,9-tetrahydropyrimido[1,2-a]pyrimidin-4-one], which inhibition at 0.1 µM [2] is on record?
A: 81%

Q: What about the inhibition at 1 µM [2] of the same molecule?
A: 93%

Q: What does the source list for `O=c1cc(N2CCOCC2)nc2n1CC[C@@H](C(F)(F)F)N2CCc1ccc(O)cc1` [Example 56, 9-[2-(4-Hydroxyphenyl)ethyl]-2-morpholin-4-yl-8-(S)-trifluoromethyl-6,7,8,9-tetrahydropyrimido[1,2-a]pyrimidin-4-one]?
A: inhibition at 0.1 µM [2]: 94%; inhibition at 1 µM [2]: 99%
